In article PMC10613524, “Rational design of the genetic code expansion toolkit for in vivo encoding of D-amino acids” (Frontiers in Genetics, 2023) one finds Km data, which are given here for three compounds.

T1 sequence (Q8PWY1 185-454 S193R/N346G/C348Q/V401G, form open): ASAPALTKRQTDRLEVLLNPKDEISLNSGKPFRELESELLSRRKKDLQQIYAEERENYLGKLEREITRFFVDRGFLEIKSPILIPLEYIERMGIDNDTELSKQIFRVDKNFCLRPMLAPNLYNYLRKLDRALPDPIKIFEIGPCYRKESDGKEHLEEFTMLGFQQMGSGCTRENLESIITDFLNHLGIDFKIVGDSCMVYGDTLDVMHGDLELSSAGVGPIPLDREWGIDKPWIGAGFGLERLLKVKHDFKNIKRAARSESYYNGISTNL

The experiment has as its target T1, PylRSc (truncated PylRS, residues 185-454); mutant DFRSc (Methanosarcina mazei, UniProt Q8PWY1, S193R/N346G/C348Q/V401G, form not given).
T1 construct: gene pylS; C-terminal catalytic domain, residues 185-454, expressed in E. coli BL21 (DE3), Ni-NTA purified (DFRSc)
Kind of experiment: ATP-[…]PPi exchange assay (amino acid activation). The class given is biochemical. As to conditions: apparent, 2 mM ATP, 1 mM PPi, 10 mM MgCl2, pH 7.2, 37°C, header prints μM × 10^3, text mM, read-out: K M , μM × 10^3.
As to `N[C@@H](Cc1cccc(Cl)c1)C(=O)O` [compound 4, L-Cl-Phe], the Km is 5380 ± 1280 µM.
As for `N[C@@H](Cc1cccc(Br)c1)C(=O)O` [compound 6, L-Br-Phe], the Km is 9800 ± 1650 µM.
Regarding `N[C@@H](Cc1cccc(C(F)(F)F)c1)C(=O)O` [compound 2, L-CF3-Phe], the Km is 7120 ± 1670 µM.
